Measured values: patent publication US20080070971A1, “Medical Use of Bilirubin and its Structural Analogues” (priority 2006, published 2008)
Where two headings read alike, the source gives them in different places.

Columns and labels:
HMG-CoA reductase = molecular target: T1, HMG-CoA reductase (Homo sapiens, UniProt P04035); test: HMG-CoA reductase assay in liver microsomes; assay type: biochemical; details: moderately high concentrations; 30 mg/L (FIG. 6)
T1 construct: from tissue; host or cells: liver microsomes
T1 sequence (P04035 1-888): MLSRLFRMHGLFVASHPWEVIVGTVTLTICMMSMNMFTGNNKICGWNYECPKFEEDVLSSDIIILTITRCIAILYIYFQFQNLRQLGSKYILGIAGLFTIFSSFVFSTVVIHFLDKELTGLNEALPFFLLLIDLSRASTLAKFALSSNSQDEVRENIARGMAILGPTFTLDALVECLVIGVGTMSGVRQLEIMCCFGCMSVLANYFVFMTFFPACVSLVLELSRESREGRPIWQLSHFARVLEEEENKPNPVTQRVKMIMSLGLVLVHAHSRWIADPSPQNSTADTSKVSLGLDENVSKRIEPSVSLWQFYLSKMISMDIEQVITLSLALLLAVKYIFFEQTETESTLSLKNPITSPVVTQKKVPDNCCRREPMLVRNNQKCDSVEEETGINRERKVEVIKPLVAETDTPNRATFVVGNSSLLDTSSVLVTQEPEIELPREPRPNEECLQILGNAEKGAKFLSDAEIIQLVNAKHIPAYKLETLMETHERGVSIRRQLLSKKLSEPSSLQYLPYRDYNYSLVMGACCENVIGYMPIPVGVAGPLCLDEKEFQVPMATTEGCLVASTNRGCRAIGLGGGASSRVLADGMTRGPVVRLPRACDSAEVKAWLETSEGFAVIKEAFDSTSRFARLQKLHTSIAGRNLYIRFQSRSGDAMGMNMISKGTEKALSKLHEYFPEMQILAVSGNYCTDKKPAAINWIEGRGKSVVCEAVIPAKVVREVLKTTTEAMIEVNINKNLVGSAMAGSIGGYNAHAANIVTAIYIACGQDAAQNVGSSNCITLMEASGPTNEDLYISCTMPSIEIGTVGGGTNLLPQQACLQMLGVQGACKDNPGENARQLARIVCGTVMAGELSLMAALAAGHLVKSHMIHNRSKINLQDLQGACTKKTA
Protocol: Liver microsomes, which are used to investigate cholesterol metabolism, were prepared as follows. Liver was homogenized in 50 mM Tris HCl buffer (pH 7.4), containing 0.3 M sucrose, 10 mM DTT, and 10 mM EDTA. The homogenate was centrifuged at 20,000×g for 15 min, and the supernatant was centrifuged at 100,000×g for 60 min. The resulting microsomal fraction was suspended in 3 ml of 0.1 M potassium phosphate buffer (pH 7.4), containing 1 mM EDTA and 5 mM DTT. Aliquots were immediately frozen in liquid nitrogen and stored at −20° C. until analysis.
Assay of HMG-CoA reductase. Microsomal suspensions of […], containing 5 mg protein, were preincubated for 5 min at 37° C. with […] of 0.1 M potassium phosphate buffer (pH 7.4), containing 1 mM EDTA and 12 mM glucose-6-phosphate. The assay was initiated by adding […] of cofactor-substrate solution (0.1 mM HMG-CoA, 3 mM MADPH, and 2 U/ml glucose-6-phosphate dehydrogenase). The incubation was performed at 37+ C. for 30 min and was terminated by the addition of […] of 1 M MaOH. After lactonization, the mevalonolactone was separated by thin layer chromatography. The eluate, which contained mevalonolactone, was collected in a scintillation vial. The radioactivity was then counted in a Packard 3320 scintillation spectrometer.

UDPGT1A1 = molecular target: T2, UDPGT1A1 (Homo sapiens, UniProt P22309); test: Inhibition of bilirubin glucuronidation by UDPGT; assay type: biochemical
T2 construct: purchased SigmaAldrich U7254
T2 sequence (P22309 26-533): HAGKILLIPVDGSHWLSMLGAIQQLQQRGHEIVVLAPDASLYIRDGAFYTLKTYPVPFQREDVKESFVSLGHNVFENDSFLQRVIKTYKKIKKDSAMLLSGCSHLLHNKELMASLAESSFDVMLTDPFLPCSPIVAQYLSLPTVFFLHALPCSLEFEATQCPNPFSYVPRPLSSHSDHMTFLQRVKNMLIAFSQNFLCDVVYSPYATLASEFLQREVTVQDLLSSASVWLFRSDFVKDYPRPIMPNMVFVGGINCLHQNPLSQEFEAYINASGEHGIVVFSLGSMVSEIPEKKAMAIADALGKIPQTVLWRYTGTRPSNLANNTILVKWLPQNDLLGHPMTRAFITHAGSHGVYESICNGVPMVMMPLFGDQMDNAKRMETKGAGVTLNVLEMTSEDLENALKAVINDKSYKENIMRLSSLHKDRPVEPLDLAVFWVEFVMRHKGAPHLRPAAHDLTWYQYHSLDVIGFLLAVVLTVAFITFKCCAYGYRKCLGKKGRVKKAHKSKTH
Description: UDP-glucuronosyltransferase 1A1 isozenzyme (Cat. #U7254), uridine-5′-diphosphoglucuronic acid (UDPGA, #U5625), bilirubin (B), naringenin (N5893), octyl gallate (#48700) and quercetin (Q0125) were purchased from SigmaAldrich (St. Louis, Mo.). Bilirubin dimethyl ester (#B612-9), biliverdin dimethyl ester (#B610-9), biliverdin hydrocholoride (#B655-9), mesobilirubin (#M588-9), urobilin hydrochloride (#U590-1), and stercobilin hydrochloride (#S594-9) were purchased from Frontier Scientific Inc. (Logan, Utah).
The enzyme activity assay method was based on those of Adlard and Lathe (Biochem. J., 1970, 119:437-445). Incubation mixtures (total vol. 1.25 ml, pH 7.9) were prepared in tubes kept in ice and had the following composition: bilirubin (0.1 mM), UDP-glucuronic acid (0.25 mM), serum (5.8%, v/v), Mg2+ (5.0 mM), microsomal preparation (0.5-1.5 mg of protein), 10 mM tris-0.14 M KCl (pH 8.0), and 10% (v/v) dimethylsulphoxide. Incubation (10 min, 37° C.) was carried out with shaking (100 cycles/min). After incubation, tubes were placed in ice-water (5 min) and direct-reacting bilirubin was determined. All incubations were done in duplicate. Enzyme activity was expressed as μg of bilirubin conjugated/h per mg of protein. Differences from controls of more than 10% were regarded as significant.

cyclooxygenase (COX) = test: Cyclooxygenase (COX) inhibition; assay type: biochemical, human; details: concentration of 10 mg/L (FIG. 4)
Protocol: The activity of COX was determined by the procedure described in Assay Design's Enzyme Immunometric Assay (EIA) kit (Assay Design Inc., TiterZyme EIA cat.#900-094). Briefly, the kit uses a monoclonal antibody to human COX-II immobilized on a microtiter plate to bind the human COX in the standard or sample. After a short incubation the excess standard or sample is washed out and a rabbit polyclonal antibody to human COX labeled with the enzyme. Horseradish peroxidase is added. This labeled antibody binds to the human COX captured on the plate. After a short incubation the excess labeled antibody is washed out and substrate is added. The substrate reacts with the labeled antibody bound to the human COX captured on the plate. After a short incubation, the enzyme reaction is stopped and the color generated is read at 450 nm. The measured optical density is directly proportional to the concentration of human COX.
Purified cyclooxygenases (COX) were obtained from Kayman Chemical Company and used to examine the inhibitory effect of bilirubin with arachidonic acid as the substrate. High purity of bilirubin (SigmaAldrich #B4126), biliverdin (Frontier Scientific Inc., Cat. B655-9) and hemin (SigmaAldrich, #51280) were used as received.

[1] = Table 4, bilirubin 0.1 mM as substrate, read-out: Apparent Ki
[2] = read-out: inhibition constant (Ki)

Row | Compound | Ki (UDPGT1A1; [1]) [nM] | further results
1 | C=CC1=C(C)c2cc3[n-]c(cc4[n-]c(cc5nc(cc1n2)C(C)=C5C=C)c(C)c4CCC(=O)O)c(CCC(=O)O)c3C.O.[Fe+2] [Hematin, reference compound] |  | inhibition of HMG-CoA reductase activity (comparison) (HMG-CoA reductase): strongly inhibit
2 | C=CC1=C(C)C(OC)N/C1=C\c1[nH]c(Cc2[nH]c(/C=C3\NC(OC)C(C=C)=C3C)c(C)c2CCC(=O)O)c(CCC(=O)O)c1C (stereo not shown) [DimethoxybilirubinIXα] | 1300 | Ki (UDPGT1A1; [2]): ~1000 nM
3 | hemin |  | reducing COX activity (comparison) (cyclooxygenase (COX)): effective in reducing COX activity
4 | C=CC1=C(C)C(=O)N/C1=C\c1[nH]c(Cc2[nH]c(/C=C3\NC(=O)C(C)=C3C=C)c(C)c2CCC(=O)O)c(CCC(=O)O)c1C [Bilirubin XIIIα] | 1700 | 
5 | (±)-2,3-Dihydro-5,7-dihydroxy-2-(4-hydroxyphenyl)-4H-1-benzopyran-4-one; 4′,5,7-Trihydroxyflavanone [Naringenin] | 4800 | Ki (UDPGT1A1; [2]): 5000 nM; IC50 (UDPGT1A1; under the testing conditions): ~16 µM
6 | CCC1=C(C)/C(=C/c2[nH]c(Cc3[nH]c(/C=C4\NC(=O)C(C)=C4CC)c(C)c3CCC(=O)O)c(CCC(=O)O)c2C)NC1=O [Mesobilirubin IXα, 3,18-diethyl-2,7,13,17-tetramethyl-1,19-dioxo-1,19,22,24-tetrahydro-21H-biline-8,12-dipropanoic acid] | 2300 | 
7 | C=CC1=C(C)/C(=C/C2=NC(=C/c3[nH]c(/C=C4\NC(=O)C(C)=C4C=C)c(C)c3CCC(=O)O)/C(CCC(=O)O)=C2C)NC1=O [biliverdin, 2,7,13,17-tetramethyl-1,19-dioxo-3,18-divinyl-1,19,22,24-tetrahydro-21H-biline-8,12-dipropanoic acid] | 19900 | inhibition of HMG-CoA reductase activity (comparison) (HMG-CoA reductase): strongly inhibit
8 | C=CC1=C(C)/C(=C/c2[nH]c(Cc3[nH]c(/C=C4\NC(=O)C(C=C)=C4C)c(C)c3CCC(=O)O)c(CCC(=O)O)c2C)NC1=O [Bilirubin IIIα] | 1500 | 
9 | CCCCCCCCOC(=O)c1cc(O)c(O)c(O)c1 [Octyl gallate ester] | 7600 | 
